Measurements published in patent US4264765A, “Salts of erythromycin A esters” (priority 1980, dated 1981).

Test system: Staph, Aureus (Smith)
Assay: standard test using mice infected with Staph, Aureus (Smith), subcutaneous treatment
Type: in vivo
Conditions: Staphylococcus aureus, sc, pH 7.4, read-out: CD 50, mice, subcutaneous, isotonic or pH 7.4 buffered aqueous solution; LD 50 column prints 100
Procedure: The above compounds were tested per their antibacterial uses in a standard test, using mice infected with Staph, Aureus (Smith). […] The compounds of the above examples were administered subcutaneously as isotonic solutions or aqueous solutions buffered to a pH of 7.4.

| SMILES | ED50 [mg/kg] |
| --- | --- |
| CCOC(=O)CCC(=O)O[C@H]1[C@H](O[C@@H]2[C@@H](C)[C@H](O[C@H]3C[C@@](C)(OC)[C@@H](O)[C@H](C)O3)[C@@H](C)C(=O)O[C@H](CC)[C@@](C)(O)[C@H](O)[C@@H](C)C(=O)[C@H](C)C[C@@]2(C)O)O[C@H](C)C[C@@H]1[N+](C)(C)COC(=O)c1ccccc1 [Example 5, 2'-ethylsuccinyl-N-benzoyloxymethyl erythromycin A iodide] | 52 |
| CCOC(=O)CCC(=O)O[C@H]1[C@H](O[C@@H]2[C@@H](C)[C@H](O[C@H]3C[C@@](C)(OC)[C@@H](O)[C@H](C)O3)[C@@H](C)C(=O)O[C@H](CC)[C@@](C)(O)[C@H](O)[C@@H](C)C(=O)[C@H](C)C[C@@]2(C)O)O[C@H](C)C[C@@H]1[N+](C)(C)COC(=O)CC [Example 7, 2'-ethylsuccinyl-N-propionyloxymethyl erythromycin A iodide] | 24 |

Same assay, conditions: Staphylococcus aureus, sc, pH 7.4, read-out: CD 50, mice, subcutaneous, isotonic or pH 7.4 buffered aqueous solution; inoculation (a): LD50 of 10-100

| SMILES | ED50 [mg/kg] |
| --- | --- |
| CC[C@H]1OC(=O)[C@H](C)[C@@H](O[C@H]2C[C@@](C)(OC)[C@@H](O)[C@H](C)O2)[C@H](C)[C@@H](O[C@@H]2O[C@H](C)C[C@H]([N+](C)(C)COC(=O)C(C)(C)C)[C@H]2OC(=O)CCC(=O)O)[C@](C)(O)C[C@@H](C)C(=O)[C@H](C)[C@@H](O)[C@]1(C)O [Example 10, 2'-succinyl-N-pivalyloxymethyl erythromycin A chloride] | 37 |
| CCOC(=O)CCC(=O)O[C@H]1[C@H](O[C@@H]2[C@@H](C)[C@H](O[C@H]3C[C@@](C)(OC)[C@@H](O)[C@H](C)O3)[C@@H](C)C(=O)O[C@H](CC)[C@@](C)(O)[C@H](O)[C@@H](C)C(=O)[C@H](C)C[C@@]2(C)O)O[C@H](C)C[C@@H]1[N+](C)(C)COC(=O)CCCCCC(=O)O [Example 14, 2'-ethylsuccinyl-N-pimelyloxymethyl erythromycin chloride] | 47 |
| CCOC(=O)CCC(=O)O[C@H]1[C@H](O[C@@H]2[C@@H](C)[C@H](O[C@H]3C[C@@](C)(OC)[C@@H](O)[C@H](C)O3)[C@@H](C)C(=O)O[C@H](CC)[C@@](C)(O)[C@H](O)[C@@H](C)C(=O)[C@H](C)C[C@@]2(C)O)O[C@H](C)C[C@@H]1[N+](C)(C)COC(=O)C(C)(C)C [Example 3, 2'-ethylsuccinyl-N-pivalyloxymethyl erythromycin A chloride] | 58 |
| CCC(=O)O[C@H]1[C@H](O[C@@H]2[C@@H](C)[C@H](O[C@H]3C[C@@](C)(OC)[C@@H](O)[C@H](C)O3)[C@@H](C)C(=O)O[C@H](CC)[C@@](C)(O)[C@H](O)[C@@H](C)C(=O)[C@H](C)C[C@@]2(C)O)O[C@H](C)C[C@@H]1[N+](C)(C)COC(=O)C(C)(C)C [Example 1, 2'-propionyl-N-pivalyloxymethylerythromycin A iodide] | 88 |

Same assay, conditions: Staphylococcus aureus, sc, pH 7.4, read-out: CD 50, mice, subcutaneous, isotonic or pH 7.4 buffered aqueous solution; inoculation (b): LD50 of 100-1000

| SMILES | ED50 [mg/kg] |
| --- | --- |
| CC[C@H]1OC(=O)[C@H](C)[C@@H](O[C@H]2C[C@@](C)(OC)[C@@H](O)[C@H](C)O2)[C@H](C)[C@@H](O[C@@H]2O[C@H](C)C[C@H]([N+](C)(C)COC(=O)C(C)(C)C)[C@H]2OC(=O)CCCC(=O)O)[C@](C)(O)C[C@@H](C)C(=O)[C@H](C)[C@@H](O)[C@]1(C)O [Example 12, 2'-glutaryl-N-pivalyloxymethyl erythromycin A chloride] | 73 |
| CCC(=O)O[C@H]1[C@H](O[C@@H]2[C@@H](C)[C@H](O[C@H]3C[C@@](C)(OC)[C@@H](O)[C@H](C)O3)[C@@H](C)C(=O)O[C@H](CC)[C@@](C)(O)[C@H](O)[C@@H](C)C(=O)[C@H](C)C[C@@]2(C)O)O[C@H](C)C[C@@H]1[N+](C)(C)COC(=O)c1ccccc1 [Example 4, 2'-propionyl-N-benzoyloxymethyl erythromycin A chloride] | 40 |
| CCOC(=O)CCC(=O)O[C@H]1[C@H](O[C@@H]2[C@@H](C)[C@H](O[C@H]3C[C@@](C)(OC)[C@@H](O)[C@H](C)O3)[C@@H](C)C(=O)O[C@H](CC)[C@@](C)(O)[C@H](O)[C@@H](C)C(=O)[C@H](C)C[C@@]2(C)O)O[C@H](C)C[C@@H]1[N+](C)(C)COC(=O)C(C)(C)C [Example 2, 2'-ethylsuccinyl-N-pivalyloxymethylerythromycin A iodide] | 143 |
